Measured values taken from patent publication US7951232B2, “Surface coating compositions and methods” (Elevance Renewable Sciences, Inc., priority 2006, dated 2011).

What was measured:
[1] = tested on: Bacillus licheniformis ATCC 14580; assay: Growth inhibition in MRS medium (OD600); format: cell-based; conditions: 0.075% w/v 9-DA from K9-DA, pH not adjusted, listed as potassium 9-DA
Description: (§1) Efficacy of the potassium salt of 9-DA was determined through incubation of the following organisms in the presence of varying concentrations of the potassium salt: Pseudomonas straminea ATCC 33636, Bacillus subtilis ATCC 6051, Bacillus licheniformis ATCC 14580, Bacillus cereus ATCC 14579, Pediococcus acidilactici ATCC 8042, and Lactobacillus casei ATCC 334.
(§2) Stock cultures of each organism were transferred into MRS liquid medium. MRS medium (Difco 288130) was purchased from Becton, Dickinson and Company, Sparks, Md.
(§3) The efficacy of different levels of the potassium salt of 9-DA was tested depending on the organism to inhibit the growth of various microorganisms indicated above.
(§4) The selected organisms were incubated overnight in 5 ml of MRS medium at 35° C. and 250 rpm. MRS media with K-9-DA was prepared, along with a control of straight media (no antimicrobial added). The concentrated antimicrobial agents were diluted with the appropriate media required for the respective microorganisms, to reach the required concentrations for the studies as indicated below. The antimicrobial agents were added by weight/volume percent on an ‘as 9-DA’ basis to the media. The purity of the antimicrobial agent (99% for K-9-DA) was taken into account. The pH of the medium was not adjusted. The target for initial cell density was 10^5 to 10^6 cfu/ml. […] OD600 readings were taken at 0, 4, 17, 23 and 47 hours. […]

[2] = tested on: microorganisms of Table 15 with the exception of Bacillus licheniformis; assay: Growth inhibition in MRS medium (OD600), summary over organisms; format: cell-based; conditions: all concentrations tested
Description: as §1, §2, §3, §4

[3] = tested on: Pediococcus acidolactici ATCC 8042; assay: Growth inhibition in MRS medium at various pH levels (OD600); format: cell-based, Pediococcus acidilactici; conditions: 0.05% w/v (as 9-DA)
Description: (§5) Efficacy of potassium salt of 9-DA were tested at various pH levels against the following: Bacillus cereus ATCC 14579, Pediococcus acidolactici ATCC 8042, Pseudomonas straminea ATCC 33636, and Lactobacillus casei ATCC 334. Stock cultures of each organism were transferred into MRS liquid medium. MRS medium (Difco 288130) was purchased from Becton, Dickinson and Company, Sparks, Md. The efficacy of the potassium salt of 9-DA (K-9-DA) was tested at different concentrations and pH levels, including 6.75 (unadjusted), 7.5, and 8.5. The selected organisms were incubated overnight in 5 ml of MRS medium at 35° C. and 250 rpm. MRS media with K-9-DA was prepared, along with a control of straight media (no antimicrobial added). The antimicrobial agent was added by weight/volume percent to the media. The purity, 99% for K-9-DA, was taken into account. The pH adjustments to 7.5 and 8.5 were done with 50% potassium hydroxide. Filter sterilization was used instead of autoclaving to prevent adverse chemical reactions at higher pH and temperature. The target for initial cell density was 10^5 to 10^6 cfu/ml. According to the McFarland standard, 0.01 OD600 is equivalent to approximately 10^8 cfu/ml. To achieve the proper dilution, 30 μl of overnight culture diluted to 0.01 OD600 was added to the 3 ml of media in each tube. The tubes were incubated at 35° C. with the exception of Pseudomonas strains which were incubated at 30° C. Treatments were all done in duplicate. All strains were shaken at 250 rpm, with the exception of Lactobacillus (because it is anaerobic). OD600 readings were taken at 0, 19, 25.5, 42.5 and 49 hours.
“Percent reduction in growth vs. control” was defined as (1−abs. of treatment/abs. of control)×100.

[4] = tested on: Lactobacillus casei ATCC 334; assay: as above; format: cell-based; conditions: 0.075% w/v (as 9-DA)
Description: as §5, with “The tubes were incubated at 35° C. with the exception of Pseudomonas strains which were incubated at 30° C. Treatments were all done in duplicate. All strains were shaken at 250 rpm, with the exception of Lactobacillus (because it is anaerobic).” left out, “hours. […]” for “hours.”

[5] = tested on: Escherichia coli 0157:H7, ATCC 43895; assay: Time-Kill Procedure (ASTM), rate of kill; format: cell-based; conditions: all concentrations (0.01, 0.05 and 0.1%), after 10 minutes
Description: (§6) The rate of kill for these organisms upon exposure to 9-decenoic acid was determined using the American Society for Testing and Materials (ASTM) procedure entitled “Standard Test Method for the Assessment of Microbiocidal Activity of Test Materials Using a Time-Kill Procedure”, October 1998. This procedure incorporates the recommendations described in the “Manual of Clinical Microbiology,”5th ed., edited by A. B. Balows et al., ASM, Washington, and is directed by the Federal Register, June 1994.
(§7) Stock cultures were transferred into TSB and incubated for 18-24 hours at 37±2° C. A second transfer was made onto TSA plates and were incubated for 18-24 hours at 37±2° C. The plates were removed from incubation and the bacterial growth washed from the agar surface using Butterfield's Phosphate Buffered Dilution Water (PBDW). The bacterial suspension was adjusted to contain approximately 10^8 Colony Forming Units (CFU)/ml with PBDW using spectrophometric methods extant in the laboratory.
(§8) The concentrated 9-decenoic acid was diluted 1:40 in filter sterilized isopropanol to yield a 2.5% stock solution. Subsequent dilutions to the 9-decenoic acid stock solutions were made with sterile Deionized Water (DI) to achieve concentrations of 0.1%, 0.05%, 0.01%, and 0.001%. The pH was determined for each dilution; pH values ranged from 4.4-4.1. Additionally, the 9-decenoic acid stock solution was adjusted to pH 7 with 1 N NaOH and serially diluted with sterile DI to achieve concentrations of 1.0%, 0.75% and 0.5%.
(§9) Compliant with the ASTM procedure cited, for each challenge microorganism a 9.9 ml aliquot of the prepared 9-decenoic acid suspension was added to a sterile tube. A 0.1 ml aliquot of the standardized inoculum was added to the 9-decenoic acid solution representing the start of the test exposure. The inoculated 9-decenoic acid solution was immediately mixed thoroughly. The inoculated suspension was held at room temperature for 0.5, 2, 5, 7 and 10 minute exposure times for tests run at ˜pH 4. The pH 7 tests were held at room temperature for 0.5 and 2 minutes.
(§10) At each exposure sample time, a 1.0 ml aliquot of the inoculated 9-decenoic acid suspension was transferred to 9.0 ml of D/E Neutralizing Broth. Additional ten-fold serial dilutions were made in PBDW and plated in duplicate on TSA. All plates were incubated for 48 hours at 37±2° C. and visually examined for growth. The plates are enumerated, recorded and log kill determined for each time point.
(§11) The following study controls were conducted: culture purity, neutralizer sterility, initial suspension population, test population, neutralization verification and a negative control using isopropanol. Culture purity was verified by performing a streak plate for isolated colonies on the each culture used. All cultures were determined to be pure based on consistent colony morphology typical for the test organism. The neutralizer sterility was confirmed by no growth in an incubated sample.
(§12) The population of the initial and test culture were determined by serial dilution, plating and enumerating after incubation. The initial suspension were determined to be ≧10^4 CFU/ml. The test culture population was used for calculation of the log reduction achieved at each time point.
(§13) Neutralization effectiveness was verified by a filtration test. For each organism, four tubes were prepared with 9 ml D/E Neutralizing Broth and fewer than 100 CFU/ml of the organism. A 1.0 ml aliquot of prepared 9-decenoic acid was added to each tube. Immediately, the entire contents of 2 tubes were filtered through a filtration apparatus and rinsed with sterile diluent. The remaining 2 tubes were held at room temperature for 30 minutes and then the entire contents were filtered using the same procedure. The filters were aseptically transferred to TSA plates and incubated for 48 hours at 37±2° C. and visually examined for growth.
(§14) This control was inoculated, subcultured and incubated as in the test procedure.

[6] = tested on: Candida albicans, ATCC 10231; assay: Time-Kill Procedure (ASTM), rate of kill; format: cell-based; conditions: all concentrations (0.01, 0.05 and 0.1%), after 10 minutes
Description: as §6, §7, §8, §9, §10, §11, §12, §13, §14

[7] = tested on: Escherichia coli 0157:H7 ATCC 43895; assay: MIC and MBC determination in Mueller-Hinton Broth; format: cell-based; conditions: 37±2° C., 20-24 hours
Description: Efficacy of 9-decenoic acid and the methyl ester of 9-decenoic acid against Pseudomonas aeruginosa ATCC 15442, Escherichia coli 0157:H7 ATCC 43895 and Candida albicans ATCC 10231 was measured through the determination of the minimum inhibitory concentration (MIC) and minimum bacteriocidal concentration (MBC) using the procedures in the Federal Register, June 1994 and the present NCCLS M11-A4 protocol.
Stock cultures of each organism were transferred onto Mueller-Hinton Agar (MHA) plates and incubated for 24±2 hours at 37±2° C. On the day of the test, the top of at least three to five well-isolated colonies were transferred via wire loop to a tube containing 4 to 5 ml of Trypticase Soy Broth (TSB). The TSB culture was incubated for 2 to 6 hours and turbidity was adjusted with sterile saline to achieve the turbidity of the 0.5 McFarland Standard.
The concentrated 9-decenoic acid was diluted 1:40 in Mueller-Hinton Broth (MHB) to yield a 2.5% stock solution. The test solution of the methyl ester of 9-decenoic acid was formulated in the same manner. For each organism, 12 dilutions of the 9-decenoic acid and the methyl ester of 9-decenoic acid in MHB were prepared ranging from 0.2500 to 0.0005%. A 2-ml aliquot of appropriately diluted 9-decenoic acid or the methyl ester of 9-decenoic acid solution was placed in each tube. Each tube was inoculated with 0.05 ml of a 1:10 dilution of one challenge organism. Tubes were incubated at 37±2° C. for 20-24 hours and observed for growth or no growth. […] Controls were run for sterility, viability and organism confirmation. It was determined that all cultures were viable and pure.
The MBC was defined as the concentration of 9-decenoic acid or the methyl ester of 9-decenoic acid that completely eradicated viable organisms from the test system.

[8] = tested on: Trichoderma virens ATCC 9645; assay: Dry film preservative test, growth on PDA agar surface; format: cell-based; conditions: 0.5% in PDA agar
Description: (§15) The efficacy of 9-decenoic acid and the methyl ester of 9-decenoic acid as a dry film preservative was determined through the incubation of Trichoderma virens ATCC 9645, Cladosporium cladosporiodes ATCC 16022 and Aureobasidium pullulans ATCC 12536 in the presence of varying concentrations of 9-decenoic acid or the methyl ester of 9-decenoic acid on an agar surface.
(§16) Fungal spores were hydrated overnight in 0.1% Tween 80 and then plated on Potato Dextrose Agar (PDA) and incubated at 25-30° C. for 6 days. The spores were washed from the surface with 5 mls of 0.1% Tween 80 and enumerated.
(§17) PDA plates with prepared according to the manufactures instructions through sterilization. The agar was tempered to approximately 50° C. and filter sterilized 9-decenoic acid was added to achieve concentrations of 0.1, 0.5 and 1.0% in the agar. Additionally, one concentration of the methyl ester of 9-decenoic acid (0.5%) was also prepared. The agar was thoroughly mixed and poured into sterile petri plates and allowed to solidify.
(§18) The agar plates were inoculated with the spore solution to achieve 10^2 spores/plate. The plates were incubated at 25-30° C. in Ziploc bags with a wet paper towel to keep the moisture level high. The plates were examined for growth after 4, 7, 16, 24 and 31 days. The percent coverage of growth on the agar surface was recorded at each sample point.

[9] = tested on: Aureobasidium pullulans ATCC 12536; assay: as above; format: cell-based; conditions: 0.5% in PDA agar
Description: as §15, §16, §17, §18

[10] = tested on: Cladosporium cladosporiodes ATCC 16022; assay: as above; format: cell-based; conditions: 0.5% in PDA agar
Description: as §15, §16, §17, §18

[11] = tested on: Pseudomonas aeroginosa, ATCC 15442; assay: Time-Kill Procedure (ASTM), rate of kill; format: cell-based, Pseudomonas aeruginosa; conditions: all concentrations (0.01, 0.05 and 0.1%), after 10 minutes
Description: as §6, §7, §8, §9, §10, §11, §12, §13, §14

## C=CCCCCCCCC(=O)O.[K] [K9-DA, Potassium-9 Decenoic Acid]
[1]
  % reduction in growth vs. control: 88.63%
[2]
  reduction in growth when compared to controls: ≥ 95%
[3]; Non-pH adjusted (6.75)
  % reduction in growth vs. control: 90.6%
[3]; pH 7.5
  % reduction in growth vs. control: 93.2%
[3]; pH 8.5
  % reduction in growth vs. control: 95.6%
[4]; Non-pH adjusted (6.75)
  % reduction in growth vs. control: 88.4%
[4]; pH 7.5
  % reduction in growth vs. control: 91.7%

## C=CCCCCCCCC(=O)OC [Methyl ester of 9-decenoic acid, methyl ester of 9-decenoic acid]
[5]
  log reduction in time kill test: < 1 log
[6]
  log reduction in time kill test: < 1 log
[7]; Mueller-Hinton Broth
  MIC: 0.1250%
[7]; no-growth tubes subcultured on TSA
  MBC: 0.1250%
[8]
  time up to which growth of the culture was significantly inhibited: 4 days
[8]; 4 days
  Percentage coverage of agar surface: 60%
[8]; 7 days
  Percentage coverage of agar surface: 95%
[8]; 16 days
  Percentage coverage of agar surface: 100%
[8]; 24 days
  Percentage coverage of agar surface: 100%
[8]; 31 days
  Percentage coverage of agar surface: 100%
[9]
  time up to which growth of the culture was significantly inhibited: 16 days
[9]; 4 days
  Percentage coverage of agar surface: 0%
[9]; 7 days
  Percentage coverage of agar surface: 2.5%
[9]; 16 days
  Percentage coverage of agar surface: 10%
[9]; 24 days
  Percentage coverage of agar surface: 50%
[9]; 31 days
  Percentage coverage of agar surface: 75%
[10]
  time up to which growth of the culture was significantly inhibited: 4 days
[10]; 4 days
  Percentage coverage of agar surface: 10%
[10]; 7 days
  Percentage coverage of agar surface: 50%
[10]; 16 days
  Percentage coverage of agar surface: 50%
[10]; 24 days
  Percentage coverage of agar surface: 50%
[10]; 31 days
  Percentage coverage of agar surface: 50%
[11]
  log reduction in time kill test: < 1 log
